Assay [1] addresses T1, E3 ubiquitin-protein ligase Mdm2 (Homo sapiens, UniProt Q00987). Put plainly: Inhibition of Mdm2 -p53 protein interaction by ELISA. In general terms: An ELISA detects its analyte on a solid surface through an enzyme-linked reagent.
Target sequence in this assay (Q00987 whole entry): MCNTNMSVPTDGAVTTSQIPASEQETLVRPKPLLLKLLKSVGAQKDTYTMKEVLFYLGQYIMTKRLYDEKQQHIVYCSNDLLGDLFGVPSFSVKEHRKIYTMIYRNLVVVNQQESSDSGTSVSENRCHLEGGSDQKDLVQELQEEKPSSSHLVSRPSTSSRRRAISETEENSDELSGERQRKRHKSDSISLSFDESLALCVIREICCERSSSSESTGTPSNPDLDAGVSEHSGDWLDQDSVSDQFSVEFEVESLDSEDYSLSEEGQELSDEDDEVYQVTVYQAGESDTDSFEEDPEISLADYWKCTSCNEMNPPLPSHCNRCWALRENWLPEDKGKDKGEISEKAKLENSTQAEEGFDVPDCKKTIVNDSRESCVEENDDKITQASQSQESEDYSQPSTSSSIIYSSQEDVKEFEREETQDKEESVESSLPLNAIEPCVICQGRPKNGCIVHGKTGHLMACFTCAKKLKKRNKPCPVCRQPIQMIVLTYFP
Assay [2] deals with T1, E3 ubiquitin-protein ligase Mdm2. Put plainly: Inhibition of Mdm2 -p53 protein interaction in human […] cells assessed as induction of MDM2 protein at 1 to 20 uM after 6 hrs by Western blot analysis. The class given is cell-based.
Target sequence in this assay (Q00987 whole entry, looked up): as the sequence (Q00987 whole entry) above
Assay [3] has the same target. Put plainly: Inhibition of Mdm2 -p53 protein interaction in human […] cells assessed as induction of p21 protein at 1 to 20 uM after 6 hrs by Western blot analysis. The class given is cell-based. A general note: In western blotting, separated proteins are transferred to a membrane and probed.
Target sequence in this assay (Q00987 whole entry, looked up): as the sequence (Q00987 whole entry) above
The target is the same in assay [4]. Put plainly: Inhibition of Mdm2 -p53 protein interaction in human […] cells assessed as induction of p53 protein at 1 to 20 uM after 6 hrs by Western blot analysis. It counts as cell-based.
Target sequence in this assay (Q00987 whole entry, looked up): as the sequence (Q00987 whole entry) above
For assay [5] the target is unchanged. Put plainly: Inhibition of Mdm2 -p53 protein interaction in human […] cells assessed as induction of p21 protein at 10 uM after 6 hrs by Western blot analysis. It counts as cell-based.
Target sequence in this assay (Q00987 whole entry, looked up): as the sequence (Q00987 whole entry) above
Assay [6] has the same target. Put plainly: Inhibition of Mdm2 -p53 protein interaction in human […] cells assessed as induction of p53 protein at 10 uM after 6 hrs by Western blot analysis. The class given is cell-based.
Target sequence in this assay (Q00987 whole entry, looked up): as the sequence (Q00987 whole entry) above
Another assay concerns SAOS-2. Put plainly: Cytotoxicity against human Saos2 cells after 72 hrs by sulforhodamine B assay. It counts as functional. The settings on record: SAOS-2, 72 h.
The subject of assay [7] is HCT-116. Put plainly: Cytotoxicity against p53 deficient human HCT116 cells after 72 hrs by sulforhodamine B assay. It counts as functional. The settings on record: HCT-116, 72 h. (In general: Sulforhodamine B stains cellular protein and so reports cell mass.)
Assay [8] is described as follows: Cytotoxicity against human NGP cells after 72 hrs by sulforhodamine B assay. The class given is functional.
Assay [9] relates to HCT-116. Put plainly: Cytotoxicity against human p53 expressing HCT116 cells after 72 hrs by sulforhodamine B assay. The settings on record: HCT-116, 72 h. It counts as functional.
A further assay has as its system SJSA-1. Put plainly: Cytotoxicity against human SJSA1 cells after 72 hrs by sulforhodamine B assay. It counts as functional. The conditions noted are these: SJSA-1, 72 h.
The nature of assay [10]: Cytotoxicity against human LS cells after 72 hrs by sulforhodamine B assay. It counts as functional.

Experimental findings from ChEMBL document CHEMBL1687910, “Isoindolinone inhibitors of the murine double minute 2 (MDM2)-p53 protein-protein interaction: structure-activity studies leading to improved potency” (J Med Chem, 2011) are described below.

Broadly, the IC50 is the midpoint of a concentration-inhibition curve. A high value points to a need for much substance. What is called GI50 is the concentration that inhibits growth by half.

The source made the active and inactive calls. The rule behind the calls is not given here.

In the case of `CCCN1C(=O)c2ccccc2C1(O)c1ccc(Cl)cc1` (stereo unspecified), in assay [1], inhibition was half-maximal at 69 µM (IC50).

As to `Cc1ccc(CN2C(=O)c3ccccc3C2(O)c2ccc(Cl)cc2)cc1` (stereo unspecified), it took 15 µM to reach half-maximal inhibition in assay [1] (IC50).

With `N#Cc1ccc(CN2C(=O)c3ccccc3C2(O)c2ccc(Cl)cc2)cc1` (stereo unspecified), the IC50 in assay [1] is 6 µM.

For the compound `O=C1c2ccccc2C(O)(c2ccc(Br)cc2)N1Cc1ccc([N+](=O)[O-])cc1` (stereo unspecified), in [1], the IC50 worked out at 3.1 µM.

`O=C1c2ccccc2C(O)(c2ccc(Cl)cc2)N1CCc1ccccc1` (stereo unspecified) came in with a half-inhibitory concentration (IC50) in assay [1] of 7.2 µM.

Turning to `O=C1c2ccccc2C(O)(c2ccc(Cl)cc2)N1CCc1ccc([N+](=O)[O-])cc1` (stereo unspecified), the IC50 in assay [1] is 6.2 µM.

In the case of `Nc1ccc(CCN2C(=O)c3ccccc3C2(O)c2ccc(Cl)cc2)cc1` (stereo unspecified), the IC50 in [1] was 6.2 µM.

In turn, `O=C1c2ccccc2C(O)(c2ccc(Cl)cc2)N1Cc1cccc2ccccc12` (stereo unspecified) showed an IC50 in assay [1] of 47 µM.

As to `O=C(c1ccccc1)c1ccc(CN2C(=O)c3ccccc3C2(O)c2ccc(Cl)cc2)cc1` (stereo unspecified), the IC50 in assay [1] is above 20 µM.

With `O=C1c2ccccc2C(O[C@H]2CC[C@@H](O)C2)(c2ccc(Cl)cc2)N1Cc1ccc([N+](=O)[O-])cc1` (mixture of isomers), the IC50 in [1] turned out to be 0.4 µM.

`O=C1c2ccccc2C(O[C@H]2C=C[C@@H](O)C2)(c2ccc(Cl)cc2)N1Cc1ccccc1` (mixture of isomers): in [1], half-maximal inhibition (IC50) required 4.7 µM.

The compound `N#Cc1ccc(CN2C(=O)c3ccccc3C2(OCCCCO)c2ccc(Cl)cc2)cc1` (racemic) gave a half-maximal inhibitory concentration (IC50) in assay [1] of 3.5 µM.

On to `O=C1c2ccccc2C(O[C@H]2CCC[C@H](O)CCC2)(c2ccc(Cl)cc2)N1Cc1ccc([N+](=O)[O-])cc1` (mixture of isomers), for which the inhibition result in [2], in [3] and in assay [4] was “Dose-dependent effect” throughout. The compound further came in with a concentration for half-maximal inhibition (IC50) in assay [1] of 0.38 µM.

The compound `O=C1c2ccccc2C(OCC2(CO)CC2)(c2ccc(Cl)cc2)N1Cc1ccncc1` (racemic) returned a 50% inhibitory concentration (IC50) in assay [1] of 252 µM.

In the case of `CC(C)(CO)COC1(c2ccc(Cl)cc2)c2ccccc2C(=O)N1Cc1ccc([N+](=O)[O-])cc1` (racemic), the inhibition result in [2], in assay [3] and in [4] was “Dose-dependent effect” each time.

As for `O=C1c2ccccc2C(OC[C@H]2CC[C@H](CO)CC2)(c2ccc(Cl)cc2)N1Cc1ccc([N+](=O)[O-])cc1` (mixture of isomers), the inhibition result in [2], in assay [3] and in [4] was “Dose-dependent effect” each time. For the same compound, the inhibition entry in assay [5] and in [6] was “Active” throughout.

With `COc1ccc(C2=N[C@@H](c3ccc(Cl)cc3)[C@@H](c3ccc(Cl)cc3)N2C(=O)N2CCNC(=O)C2)c(OC(C)C)c1` [NUTLIN-3], the GI50 in the assay on SAOS-2 was determined as 18 µM; in the assay on HCT-116 [7], 34 µM; in [8], 2.1 µM; in the assay with HCT-116 [9], 13 µM; in the assay on SJSA-1, 2.6 µM; in assay [10], 2.3 µM.
